Where two headings read alike, the source gives them in different places.
Key:
SvelOBP1 [1] = assay: Competitive fluorescence binding assay (displacement of 1-NPN); parameters: species or system Sympiezomias velatus; settings: for IC50: 2 μM recombinant SvelOBP1/1-NPN, ligand 0-16 μM, 20 mM Tris-HCl pH7.4, three replicates, read-out: IC50 (ligand concentration replacing 50% of initial fluorescence of SvelOBP1/1-NPN mixture)
Procedure: (§1) The fluorescent probe 1-N-phenyl-naphthylamine (1-NPN) was used to evaluate the binding affinity of SvelOBP1 protein to different ligands. Forty-three host plant volatiles from leaves of jujube trees were selected as putative ligands (Table 2). Fluorescence-based ligand binding assays were performed on an F-2700 fluorescence spectrophotometer (Hitachi, Tokyo, Japan). The excitation wavelength was 337 nm, and the emission spectra were in the range from 370 to 550 nm. First, all tested ligands and 1-NPN were dissolved in chromatographic methanol and diluted to 1 mM as the stock solution. Second, the recombinant protein was diluted to 2 μM with 20 mM Tris-HCl (pH7.4), and 2 mL of the protein solution was placed in a 1 cm light path quartz cuvette.
(§2) The dissociation constants K1-NPN of 1-NPN to SvelOBP1 were calculated by GraphPad Prism 8.0 software with non-linear regression for the one site-specific binding method. The inhibitory constant (Ki) of each ligand binding to SvelOBP1 was calculated with Equation (1). IC50 is the ligand concentration replacing 50% of the initial fluorescence intensity of the SvelOBP1/1-NPN mixture. [1-NPN] represents the free concentration of 1-NPN. […] (1) Ki=IC50/(1+[1−NPN]/K1−NPN)

SvelOBP1 [2] = assay: Binding of fluorescent probe 1-NPN to SvelOBP1 (titration, Scatchard plot); parameters: species or system Sympiezomias velatus; settings: 2 μM SvelOBP1 titrated with 1-NPN 0-16 μM, pH7.4; read-out: dissociation constant (Kd) of 1-NPN
Procedure: as §1, §2

SvelOBP15 = target: SvelOBP15; parameters: method as in PMID 35711318; settings: cited from earlier work
[3] = Ki=IC50/(1+[1-NPN]/K1-NPN), 2 μM SvelOBP1/1-NPN, pH7.4, mean ± SEM, read-out: Ki (inhibitory constant)
[4] = class in words by Ki, read-out: binding affinity class

SMILES	IC50 (SvelOBP1 [1]; mean ± SEM)	Ki (SvelOBP1 [1]; [3])	also measured
CC(C)=CCC/C(C)=C/CC/C(C)=C/CO [(2E,6E)-3,7,11-trimethyldodeca-2,6,10-trien-1-ol]	14.4 ± 0.17 µM	11.9 ± 0.14 µM	–
C/C(=C\CO)CCCC(C)CCCC(C)CCCC(C)C (stereo not drawn) [(E)-3,7,11,15-tetramethylhexadec-2-en-1-ol]	> 16 µM	–	–
CC12CCC(CC1)C(C)(C)O2 [1,3,3-trimethyl-2-oxabicyclo [2.2.2]octane]	13.81 ± 0.13 µM	11.48 ± 0.11 µM	–
C=CCc1ccc(O)c(OC)c1 [2-methoxy-4-prop-2-enylphenol]	> 16 µM	–	–
C=C1C2CCC(C2)C1(C)C (stereo not drawn) [2,2-dimethyl-3-methylidenebicyclo [2.2.1]heptane]	> 16 µM	–	–
C=C/C(C)=C/C/C=C(\C)CCC=C(C)C [(3E,6E)-3,7,11-trimethyldodeca-1,3,6,10-tetraene]	–	8.73 ± 0.09 µM	–
CCCCCCCCCCCC [Dodecane]	> 16 µM	–	–
CC(C)=Cc1ccccc1 [2-methylprop-1-enylbenzene]	> 16 µM	–	–
CC1=CCC(C(C)C)C=C1 (stereo not drawn) [2-methyl-5-propan-2-ylcyclohexa-1,3-diene]	11.69 ± 0.07 µM	9.71 ± 0.06 µM	–
CCCCOC(C)=O [Butyl acetate]	13.2 ± 0.47 µM	10.9 ± 0.39 µM	–
C=CC(=C)CCC=C(C)C [7-methyl-3-methylideneocta-1,6-diene]	> 16 µM	–	–
COC(=O)c1ccccc1O [Methyl 2-hydroxybenzoate]	> 16 µM	–	–
c1ccc(Nc2cccc3ccccc23)cc1 [1-NPN, 1-N-phenyl-naphthylamine]	–	–	Kd (SvelOBP1 [2]): 4.92 ± 0.04 µM
CC(=O)c1ccc(C)c(C)c1 [1-(3,4-dimethylphenyl)ethanone]	> 16 µM	–	–
CC1=CC[C@H]2C[C@@H]1C2(C)C [(1S,5S)-2,6,6-trimethylbicyclo [3.1.1]hept-2-ene]	> 16 µM	–	–
CC(C)=CCC/C(C)=C/CC/C(C)=C/CC/C=C(\C)CC/C=C(\C)CCC=C(C)C [(6E,10E,14E,18E)-2,6,10,15,19,23-hexamethyltetracosa-2,6,10,14,18,22-hexaene]	> 16 µM	–	–
C=CC(C)(O)CC/C=C(\C)CCC=C(C)C (stereo not drawn) [(6E)-3,7,11-trimethyldodeca-1,6,10-trien-3-ol]	> 16 µM	–	–
CC(C)=CCC/C(C)=C/CO [(2E)-3,7-dimethylocta-2,6-dien-1-ol]	> 16 µM	–	–
CCc1ccc(C(C)=O)cc1 [1-(4-ethylphenyl)ethanone]	13.1 ± 0.16 µM	10.9 ± 0.13 µM	Ki (SvelOBP1 [1]; [4]): 10 to 16 µM
CCCCC(=O)OCC [Ethyl pentanoate]	14.1 ± 0.31 µM	11.7 ± 0.26 µM	–
CC1=CCC2C(C1)C2(C)C (stereo not drawn) [3,7,7-trimethylbicyclo [4.1.0]hept-3-ene]	14.56 ± 0.07 µM	12.1 ± 0.06 µM	–
CC/C=C\CCO [(Z)-hex-3-en-1-ol]	–	7.98 ± 0.08 µM	Ki (SvelOBP1 [1]; [4]): 5 to 10 µM; Ki (SvelOBP15): > 16 µM
C=C(C)C1CC=C(C)CC1 (stereo not drawn) [1-methyl-4-prop-1-en-2-ylcyclohexene]	13.11 ± 0.02 µM	10.9 ± 0.01 µM	–
OCc1ccccc1 [Phenylmethanol]	11.3 ± 0.27 µM	9.4 ± 0.23 µM	–
CCCCCCCCCCCCCCCC(=O)O [Hexadecanoic acid]	14.1 ± 0.33 µM	11.7 ± 0.27 µM	Ki (SvelOBP1 [1]; [4]): 10 to 16 µM
C=CC(C)=CCC=C(C)C [3,7-dimethylocta-1,3,6-triene]	11.13 ± 0.06 µM	9.25 ± 0.05 µM	–
CCCCOC(=O)c1ccccc1C(=O)OCCCC [Dibutyl benzene-1,2-dicarboxylate]	–	6.66 ± 0.03 µM	–
O=C1CCCC1C1CCCC1 (stereo not drawn) [2-cyclopentylcyclopentan-1-one]	> 16 µM	–	–
C=CC(C)(O)CCC=C(C)C (stereo not drawn) [3,7-dimethylocta-1,6-dien-3-ol]	13.6 ± 0.16 µM	11.3 ± 0.13 µM	–

More lines, main results first:

IC50 (SvelOBP1 [1]; mean ± SEM)	Ki (SvelOBP1 [1]; [3])	SMILES	also measured
14.45 ± 0.11 µM	12.01 ± 0.09 µM	CC/C=C\CCOC(C)=O [[(Z)-hex-3-enyl] acetate]	–
14.4 ± 0.16 µM	11.9 ± 0.13 µM	CC/C=C\CCOC(=O)CC(C)C [[(Z)-hex-3-enyl] 3-methylbutanoate]	–
> 16 µM	–	CCOC(=O)CC(C)C [Ethyl 3-methylbutanoate]	–
> 16 µM	–	C/C=C(\C)C(=O)OCC [Ethyl (E)-2-methylbut-2-enoate]	–
11.28 ± 0.1 µM	9.37 ± 0.08 µM	CCOC(=O)C(C)CC (stereo not drawn) [Ethyl 2-methylbutyrate]	–
> 16 µM	–	CC(C)=CCC/C(C)=C/C(=O)O [(2E)-3,7-dimethylocta-2,6-dienoic acid]	–
14.2 ± 0.16 µM	11.8 ± 0.13 µM	CCCC(=O)OCC [Ethyl butyrate]	–
15.44 ± 0.14 µM	12.83 ± 0.12 µM	CCC/C=C/CO [(E)-hex-2-en-1-ol]	–
14.51 ± 0.06 µM	12.06 ± 0.05 µM	CCC/C=C/COC(=O)CCCCC [[(E)-hex-2-enyl] hexanoate]	–
15.18 ± 0.13 µM	12.61 ± 0.11 µM	C=CC(O)CCCCC (stereo not drawn) [Oct-1-en-3-ol]	–
13.4 ± 0.2 µM	11.2 ± 0.16 µM	CC/C=C\CCOC(=O)C(C)CC (stereo not drawn) [[(Z)-hex-3-enyl] 2-methylbutanoate]	–
15.5 ± 0.9 µM	12.9 ± 0.75 µM	CC/C=C\CCOC(=O)CCC [[(Z)-hex-3-enyl] butanoate]	–
> 16 µM	–	CC(C)C=O [2-methylpropanal]	–
> 16 µM	–	CCC/C=C/COC(C)=O [[(E)-hex-2-en-1-yl] acetate]	–
> 16 µM	–	CC(C)COC(=O)CCCCC(=O)OCC(C)C [Bis(2-methylpropyl) hexanedioate]	–

From publication PMC10890569, “The Sequence Characteristics and Binding Properties of the Odorant-Binding Protein SvelOBP1 from Sympiezomias velatus (Coleoptera: Curculionidae) to Jujube Volatiles” (Life, 2024)
